This is an account of results in PubChem BioAssay AID1259407 (Chemical Carcinogenesis Research Information System (CCRIS), 2018).

The test system of the data set is CCRIS mutagenicity, Ames/micronucleus/aberration tests. As to the kind of experiment: CCRIS mutagenicity studies.
[1] abbreviates: Test System: AMES SALMONELLA TYPHIMURIUM, Strain/Indicator: TA100, Metabolic Activation: NONE, Method: STANDARD PLATE.
Setting [2] is: Test System: AMES SALMONELLA TYPHIMURIUM, Strain/Indicator: TA98, Metabolic Activation: NONE, Method: STANDARD PLATE.
[3] abbreviates: Test System: AMES SALMONELLA TYPHIMURIUM, Strain/Indicator: TA98, Metabolic Activation: RAT, LIVER, S-9, AROCLOR 1254, Method: STANDARD PLATE.
Setting [4] is: Test System: AMES SALMONELLA TYPHIMURIUM, Strain/Indicator: TA100, Metabolic Activation: NONE, Method: PREINCUBATION
Where [5] appears, read: Test System: AMES SALMONELLA TYPHIMURIUM, Strain/Indicator: TA100, Metabolic Activation: RAT, LIVER, S-9, AROCLOR 1254, Method: STANDARD PLATE.
Where [6] appears, read: Test System: AMES SALMONELLA TYPHIMURIUM, Strain/Indicator: TA98, Metabolic Activation: NONE, Method: PREINCUBATION
Setting [7] is: Test System: AMES SALMONELLA TYPHIMURIUM, Strain/Indicator: TA100, Metabolic Activation: RAT, LIVER, S-9, AROCLOR 1254, Method: PREINCUBATION
[8] abbreviates: Test System: AMES SALMONELLA TYPHIMURIUM, Strain/Indicator: TA102, Metabolic Activation: NONE, Method: STANDARD PLATE.

Calls of active or inactive are those of the source. How the calls were made is not given here.

On to `[O-][n+]1cccc2c1[C@H]1O[C@H]1C=C2`, for which the mutagenic call was “inactive; negative” under setting [1] and “inactive; negative” (Test System: AMES SALMONELLA TYPHIMURIUM, Strain/Indicator: TA100, Metabolic Activation: RAT, LIVER, S-9, AROCLOR 1254 (10 OR 20%), Method: STANDARD PLATE).
As to `Nc1nc(N)nc(-c2ccc([N+](=O)[O-])o2)n1`, the mutagenic call (Test System: AMES SALMONELLA TYPHIMURIUM, Strain/Indicator: TA100, Metabolic Activation: RAT, LIVER, S-9, KC500 OR PHENOBARBITAL, Method: LIQUID SUSPENSION) is “active; positive”.
Consider `C=CCCCCCCCC`, for which the mutagenic call by setting is: (Test System: AMES SALMONELLA TYPHIMURIUM, Strain/Indicator: TA98, Metabolic Activation: MOUSE, LIVER, S-9, Method: STANDARD PLATE) “inactive; negative”; under setting [2], “inactive; negative”; (Test System: AMES SALMONELLA TYPHIMURIUM, Strain/Indicator: TA100, Metabolic Activation: MOUSE, LIVER, S-9, Method: STANDARD PLATE) “inactive; negative”; under setting [1], “inactive; negative”; (Test System: AMES SALMONELLA TYPHIMURIUM, Strain/Indicator: TA1535, Metabolic Activation: NONE, Method: STANDARD PLATE) “inactive; negative”; (Test System: AMES SALMONELLA TYPHIMURIUM, Strain/Indicator: TA1538, Metabolic Activation: NONE, Method: STANDARD PLATE) “inactive; negative”.
`COc1cc2c(c3oc(=O)c4c(c13)CCC4=O)[C@@H]1CCO[C@@H]1O2`: the mutagenic call is “active; positive” under setting [3]; “active; positive” under setting [4]; “active; positive” under setting [5]; “active; positive” (Test System: AMES SALMONELLA TYPHIMURIUM, Strain/Indicator: TA100, Metabolic Activation: RAT, LIVER, S-9, PHENOBARBITAL, Method: PREINCUBATION); “active; positive” (Test System: CHINESE HAMSTER V-79, Strain/Indicator: V-79/6-THIOGUANINE, Metabolic Activation: RAT, LIVER, S-9, PHENOBARBITAL, Method: STANDARD PLATE).
Take `CCC[CH2][Sn]=[O]`: the mutagenic call (Test System: AMES SALMONELLA TYPHIMURIUM, Strain/Indicator: TA98, Metabolic Activation: NONE, Method: SUSPENSION/PLATE) is “inactive; negative” and the mutagenic call (Test System: AMES SALMONELLA TYPHIMURIUM, Strain/Indicator: TA100, Metabolic Activation: NONE, Method: SUSPENSION/PLATE) was “inactive; negative”.
For the compound `O=[N+]([O-])c1cc(Cl)c(Cl)c(Cl)c1Cl`, the mutagenic call by setting is: (Test System: AMES SALMONELLA TYPHIMURIUM, Strain/Indicator: TA98, Metabolic Activation: HAMSTER, LIVER, S-9, AROCLOR 1254, Method: PREINCUBATION) “inactive; negative”; under setting [6], “inactive; negative”; (Test System: AMES SALMONELLA TYPHIMURIUM, Strain/Indicator: TA98, Metabolic Activation: RAT, LIVER, S-9, AROCLOR 1254, Method: PREINCUBATION) “inactive; negative”; (Test System: AMES SALMONELLA TYPHIMURIUM, Strain/Indicator: TA100, Metabolic Activation: HAMSTER, LIVER, S-9, AROCLOR 1254, Method: PREINCUBATION) “inactive; negative”; under setting [4], “inactive; negative”; under setting [7], “inactive; negative”. Further, the mutagenic call (Test System: AMES SALMONELLA TYPHIMURIUM, Strain/Indicator: TA1535, Metabolic Activation: HAMSTER, LIVER, S-9, AROCLOR 1254, Method: PREINCUBATION) is “inactive; negative”; the mutagenic call (Test System: AMES SALMONELLA TYPHIMURIUM, Strain/Indicator: TA1535, Metabolic Activation: NONE, Method: PREINCUBATION) is “inactive; negative”; the mutagenic call (Test System: AMES SALMONELLA TYPHIMURIUM, Strain/Indicator: TA1535, Metabolic Activation: RAT, LIVER, S-9, AROCLOR 1254, Method: PREINCUBATION) was “inactive; negative”; the mutagenic call (Test System: AMES SALMONELLA TYPHIMURIUM, Strain/Indicator: TA1537, Metabolic Activation: HAMSTER, LIVER, S-9, AROCLOR 1254, Method: PREINCUBATION) was “inactive; negative”; the mutagenic call (Test System: AMES SALMONELLA TYPHIMURIUM, Strain/Indicator: TA1537, Metabolic Activation: NONE, Method: PREINCUBATION) is “inactive; negative”; the mutagenic call (Test System: AMES SALMONELLA TYPHIMURIUM, Strain/Indicator: TA1537, Metabolic Activation: RAT, LIVER, S-9, AROCLOR 1254, Method: PREINCUBATION) is “inactive; negative”.
Take `CC1(c2ccccc2)C(=O)c2ccccc2N1[O]` (stereo not given): the mutagenic call was “inactive; negative” under setting [2], “inactive; negative” under setting [1] and “inactive; negative” under setting [8].
For `CC(=O)n1ccnc1`, the mutagenic call is, setting by setting: (Test System: AMES SALMONELLA TYPHIMURIUM, Strain/Indicator: TA97, Metabolic Activation: NONE, Method: STANDARD PLATE) “inactive; negative”; (Test System: AMES SALMONELLA TYPHIMURIUM, Strain/Indicator: TA97, Metabolic Activation: RAT, LIVER, S-9, AROCLOR 1254, Method: STANDARD PLATE) “inactive; negative”; under setting [2], “inactive; negative”; under setting [3], “inactive; negative”; under setting [1], “inactive; negative”; under setting [5], “inactive; negative”. Further, the mutagenic call was “inactive; negative” under setting [8] and “inactive; negative” (Test System: AMES SALMONELLA TYPHIMURIUM, Strain/Indicator: TA102, Metabolic Activation: RAT, LIVER, S-9, AROCLOR 1254, Method: STANDARD PLATE).
With `O=C/C=C/c1ccc([N+](=O)[O-])o1`, the mutagenic call (Test System: AMES SALMONELLA TYPHIMURIUM, Strain/Indicator: TA98(1,8-DNP6), Metabolic Activation: NONE, Method: STANDARD PLATE) is “active; positive”; the mutagenic call (Test System: AMES SALMONELLA TYPHIMURIUM, Strain/Indicator: TA98(1,8-DNP6), Metabolic Activation: RAT, LIVER, S-9, 3-METHYLCHOLANTHRENE, Method: STANDARD PLATE) is “active; positive”; the mutagenic call (Test System: AMES SALMONELLA TYPHIMURIUM, Strain/Indicator: TA98(NR), Metabolic Activation: NONE, Method: STANDARD PLATE) is “active; positive”; the mutagenic call (Test System: AMES SALMONELLA TYPHIMURIUM, Strain/Indicator: TA98(NR), Metabolic Activation: RAT, LIVER, S-9, 3-METHYLCHOLANTHRENE, Method: STANDARD PLATE) is “active; positive”; the mutagenic call under setting [2] was “active; positive”; the mutagenic call (Test System: AMES SALMONELLA TYPHIMURIUM, Strain/Indicator: TA98, Metabolic Activation: RAT, LIVER, S-9, 3-METHYLCHOLANTHRENE, Method: STANDARD PLATE) was “active; positive”. Further, the mutagenic call is, setting by setting: (Test System: AMES SALMONELLA TYPHIMURIUM, Strain/Indicator: TA100(1,8-DNP6), Metabolic Activation: NONE, Method: PREINCUBATION) “active; positive”; (Test System: AMES SALMONELLA TYPHIMURIUM, Strain/Indicator: TA100(1,8-DNP6), Metabolic Activation: RAT, LIVER, S-9, AROCLOR 1254, Method: PREINCUBATION) “active; positive”; (Test System: AMES SALMONELLA TYPHIMURIUM, Strain/Indicator: TA100(NR), Metabolic Activation: NONE, Method: PREINCUBATION) “active; positive”; (Test System: AMES SALMONELLA TYPHIMURIUM, Strain/Indicator: TA100(NR), Metabolic Activation: RAT, LIVER, S-9, AROCLOR 1254, Method: PREINCUBATION) “active; positive”; under setting [4], “active; positive”; under setting [7], “active; positive”.
`C[C@H](CCC(=O)O)[C@H]1CC[C@H]2[C@@H]3CC[C@@H]4CC(=O)CC[C@]4(C)[C@H]3CC(=O)[C@]12C`: the mutagenic call was “inactive; negative” (Test System: AMES SALMONELLA TYPHIMURIUM, Strain/Indicator: TA98, Metabolic Activation: NONE, Method: FLUCTUATION TEST); “inactive; negative” under setting [6]; “inactive; negative” (Test System: AMES SALMONELLA TYPHIMURIUM, Strain/Indicator: TA100, Metabolic Activation: NONE, Method: FLUCTUATION TEST).
With `OC1C=Cc2c(ccc3ccccc23)C1O` (stereo not given), under setting [5], the mutagenic call was “active; positive”.
